The target of this experiment is alpha-5-beta-1 integrin (Homo sapiens (Human), UniProt P05556+P08648). The experiment in a line: alpha-5-beta-1 integrin cell adhesion assay (SW480 cells on human plasma fibronectin). Type of experiment: cell-based. As to the method: Cell Adhesion Assay. Evaluation of cell attachment to extracellular matrix proteins was performed as previously described by Yokosaki et al, J. Biol. Chem., 271: (39): 24144-24150 (1996). Briefly, wells of non-tissue culture-treated polystyrene 96-well flat-bottom microtiter plates (Linbro/Titertek, Flow Laboratories, McLean, Va.) were coated by incubation with 100 μl of each substrate in PBS at 37° C. for 1 hour. 96-well flat-bottomed tissue culture plates were coated with human plasma fibronectin for 1 hour at 37° C. After incubation, wells were washed with PBS, then blocked with 1% bovine serum albumin (BSA) for one hour. Control wells were filled with 1% BSA. SW480 cells were detached using 10 mM EDTA and resuspended in serum-free DMEM. For blocking experiments, cells were incubated with 10 μg/ml of the antibody for 15 minutes at 4° C. before plating. The plates were centrifuged at 10 g for 5 minutes before incubation for 1 hour at 37° C. in humidified 5% CO2. Nonadherent cells were removed by centrifugation (top side down) at 10 g for 5 minutes. Attached cells were stained with 0.5% crystal violet, and the wells were washed with PBS. The relative number of cells in each well was evaluated after solubilization in 40 μl of 2% Triton X-100 by measuring absorbance at 595 nm in a microplate reader. All determinations were carried out in triplicate.
Sequence of alpha-5-beta-1 integrin (P08648 42-894): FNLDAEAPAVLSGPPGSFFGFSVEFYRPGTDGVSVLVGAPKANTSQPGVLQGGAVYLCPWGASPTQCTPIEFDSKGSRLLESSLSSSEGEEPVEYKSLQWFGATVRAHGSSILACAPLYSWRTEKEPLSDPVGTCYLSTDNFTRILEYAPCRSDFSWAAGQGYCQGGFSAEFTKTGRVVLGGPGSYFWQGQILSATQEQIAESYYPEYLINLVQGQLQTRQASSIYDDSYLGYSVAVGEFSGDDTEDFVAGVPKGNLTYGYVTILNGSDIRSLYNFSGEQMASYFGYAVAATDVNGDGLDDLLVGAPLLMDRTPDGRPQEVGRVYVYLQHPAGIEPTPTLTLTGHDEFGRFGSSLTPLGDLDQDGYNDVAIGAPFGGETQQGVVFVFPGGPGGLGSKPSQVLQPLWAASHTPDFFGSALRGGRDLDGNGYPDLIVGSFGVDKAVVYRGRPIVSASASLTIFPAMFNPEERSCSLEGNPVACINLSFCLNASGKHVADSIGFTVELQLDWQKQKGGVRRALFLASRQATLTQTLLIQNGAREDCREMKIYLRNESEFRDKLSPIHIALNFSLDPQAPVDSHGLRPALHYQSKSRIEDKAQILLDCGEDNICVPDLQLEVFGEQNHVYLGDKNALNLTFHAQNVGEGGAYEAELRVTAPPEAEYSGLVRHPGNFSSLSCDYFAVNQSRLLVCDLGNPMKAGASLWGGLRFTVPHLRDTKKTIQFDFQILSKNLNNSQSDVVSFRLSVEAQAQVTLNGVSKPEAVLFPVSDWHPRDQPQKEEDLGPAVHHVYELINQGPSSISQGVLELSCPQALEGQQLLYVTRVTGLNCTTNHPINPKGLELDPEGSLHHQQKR
Sequence of alpha-5-beta-1 integrin (P08648 895-1049 partner): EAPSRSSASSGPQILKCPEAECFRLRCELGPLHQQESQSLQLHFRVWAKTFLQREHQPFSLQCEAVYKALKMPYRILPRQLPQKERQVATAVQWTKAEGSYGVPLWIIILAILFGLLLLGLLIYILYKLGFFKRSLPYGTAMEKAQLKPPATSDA
Sequence of alpha-5-beta-1 integrin (P05556 21-798): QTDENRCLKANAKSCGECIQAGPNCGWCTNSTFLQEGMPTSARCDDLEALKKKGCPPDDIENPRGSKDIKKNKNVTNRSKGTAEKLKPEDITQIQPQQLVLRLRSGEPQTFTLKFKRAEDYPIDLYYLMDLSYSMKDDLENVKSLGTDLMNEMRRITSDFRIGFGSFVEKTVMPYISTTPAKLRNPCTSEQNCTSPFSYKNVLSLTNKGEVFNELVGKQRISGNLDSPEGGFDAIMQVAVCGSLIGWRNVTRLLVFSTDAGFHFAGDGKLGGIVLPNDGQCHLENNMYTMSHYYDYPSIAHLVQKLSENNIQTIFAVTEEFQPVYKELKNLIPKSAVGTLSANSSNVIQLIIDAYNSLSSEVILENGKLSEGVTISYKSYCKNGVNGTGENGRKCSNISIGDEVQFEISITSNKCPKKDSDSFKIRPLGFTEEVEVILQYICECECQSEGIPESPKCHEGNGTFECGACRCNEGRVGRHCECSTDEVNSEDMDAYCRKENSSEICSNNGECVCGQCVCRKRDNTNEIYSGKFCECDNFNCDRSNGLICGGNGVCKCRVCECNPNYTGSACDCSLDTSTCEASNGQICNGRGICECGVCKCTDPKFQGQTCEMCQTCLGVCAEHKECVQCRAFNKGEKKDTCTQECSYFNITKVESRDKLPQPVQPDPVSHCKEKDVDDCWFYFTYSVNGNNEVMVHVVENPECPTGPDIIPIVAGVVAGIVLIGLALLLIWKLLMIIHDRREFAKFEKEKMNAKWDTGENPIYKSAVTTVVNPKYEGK
Table 2 provides the IC50 (nM) results of an alpha-5-beta-1 integrin cell adhesion assay for the compounds shown. The assay was performed following the procedures set forth in Example 1 and as described by Yokosaki et al, J. Biol. Chem., 271: (39): 24144-24150 (1996).

Setting [1] is: alpha-5-beta-1 integrin cell adhesion assay following Example 1, Table 2.
Where [2] appears, read: cell adhesion assay, SW480 cells, fibronectin-coated plates, Table 1.

Structures are written as SMILES. Where only a bound is given, the exact number is not on record here.

Usually IC50 stands for the concentration that gives 50% inhibition. Low values mean greater potency in that assay, high ones weaker potency in that assay.

The compound `C/N=C(\NC)Nc1cccc(C(=O)NCC(=O)NC[C@H](NC(=O)c2c(Cl)cc(-c3ccccc3)cc2Cl)C(=O)O)c1` [SU15210-0193-01, (S,E)-2-(3,5-dichlorobiphenyl-4-ylcarboxamido)-3-(2-(3-(2,3-dimethylguanidino)benzamido)acetamido)propanoic acid] registered an IC50 under setting [1] of 101 to 1000 nM.

Regarding `O=C(CNC(=O)c1cccc(NC2=NCC(F)CN2)c1)NC[C@H](NC(=O)c1c(Cl)cc(N2CCOCC2)cc1Cl)C(=O)O` (stereo partly drawn) [SU15210-0248-01, (2 S)-2-(2,6-dichloro-4-morpholinobenzamido)-3-(2-(3-(5-fluoro-1,4,5,6-tetrahydropyrimidin-2-ylamino)benzamido)acetamido)propanoic acid], the IC50 under setting [1] is below 100 nM.

In the case of `N#C/N=C(\N)Nc1cccc(C(=O)NCC(=O)NC[C@H](NC(=O)c2c(Cl)cccc2Cl)C(=O)O)c1` [drawing 110], the IC50 under setting [2] was below 1000 nM.

In turn, `O=C(CNC(=O)c1cccc(NC2=NCCCS2)c1)NC[C@H](NC(=O)c1c(Cl)cc(-c2ccccc2)cc1Cl)C(=O)O` [SU15210-0230-01] registered an IC50 under setting [1] below 100 nM.

Turning to `Cc1cccc(Cl)c1C(=O)N[C@@H](CNC(=O)CNC(=O)c1cccc(NC(=N)N)c1)C(=O)O`, the IC50 under setting [2] was below 1000 nM. Compound `CN(CC(=O)NC[C@H](NC(=O)c1c(Cl)cc(-c2ccccc2)cc1Cl)C(=O)O)C(=O)c1cccc(NC(=N)N)c1` [SU15210-0202-01, (S)-2-(3,5-dichlorobiphenyl-4-ylcarboxamido)-3-(2-(3 guanidino-N-methylbenzamido)acetamido)propanoic acid] came in with an IC50 under setting [1] of 101 to 1000 nM. The same measure, in the same setting: then `COC(=O)[C@H](CNC(=O)CNC(=O)c1cc(C#N)cc(N/C(=N/C(=O)OC(C)(C)C)NC(=O)OC(C)(C)C)c1)NC(=O)c1c(Cl)cc(-c2ccccc2)cc1Cl` [SU15210-0206-01], with below 100 nM. Still for that read-out and setting: then `O=C(CNC(=O)c1cccc(NC2=NCC(F)(F)CN2)c1)NC[C@H](NC(=O)c1c(Cl)cc(N2CCOCC2)cc1Cl)C(=O)O` [SU15210-0271-01, (S)-2-(2,6-dichloro-4-morpholinobenzamido)-3-(2-(3-(5,5-difluoro-1,4,5,6-tetrahydropyrimidin-2-ylamino)benzamido)acetamido)propanoic acid], with below 100 nM; and `O=C(CNC(=O)c1cccc(NC2=NCC(F)(F)CN2)c1)NC[C@H](NC(=O)c1c(Cl)cc(-c2ccccc2)cc1Cl)C(=O)O` [SU15210-0200, (S)-2-(3,5-dichlorobiphenyl-4-ylcarboxamido)-3-(2-(3-(5,5-difluoro-1,4,5,6-tetrahydropyrimidin-2-ylamino)benzamido)acetamido)propanoic acid], with below 100 nM.

Compound `N=C(N)Nc1ccc2ncn(CCC(=O)NC[C@H](NC(=O)c3c(Cl)cccc3Cl)C(=O)O)c2c1` gave an IC50 under setting [2] below 10000 nM. `N#C/N=C(\N)Nc1cccc(C(=O)NCC(=O)NC[C@H](NC(=O)c2c(Cl)cccc2Cl)C(=O)O)c1` [drawing 107]: the IC50 under setting [2] was below 100 nM. `O=C(CNC(=O)c1cccc(NC2=NCC(F)CN2)c1)NC[C@H](NC(=O)c1c(Cl)cc(-c2ccc3cn[nH]c3c2)cc1Cl)C(=O)O` (stereo partly drawn) [SU15210-0241-01, (2S)-2-(2,6-dichloro-4-(1H-indazol-6-yl)benzamido)-3-(2-(3-(5-fluoro-1,4,5,6-tetrahydropyrimidin-2-ylamino)benzamido)acetamido)propanoic acid] showed an IC50 under setting [1] below 100 nM.

In turn, `N=C(N)Nc1cccc(C(=O)NCC(=O)NC[C@H](NC(=O)c2c(Cl)cc(N3CCOCC3)cc2Cl)C(=O)O)c1` showed an IC50 under setting [2] below 100 nM. As for `O=C(CNC(=O)c1cccc(NC2=NCC(F)CN2)c1)NC[C@H](NC(=O)c1c(Cl)cc(N2CCS(=O)(=O)CC2)cc1Cl)C(=O)O` (stereo partly drawn) [SU15210-0253-01], the IC50 under setting [1] was below 100 nM. With `O=C(CNC(=O)c1cccc(NC2=NCCCN2)c1)NC[C@H](NC(=O)c1c(Cl)cccc1Cl)C(=O)O`, under setting [2], the IC50 was below 100 nM. In turn, `O=C(CNC(=O)c1cccc(NC2=NCC(F)(F)CN2)c1)NC[C@H](NC(=O)c1c(Cl)cc(-c2ccc3cn[nH]c3c2)cc1Cl)C(=O)O` [SU15210-0272-01, (S)-2-(2,6-dichloro-4-(1H-indazol-6-yl)benzamido)-3-(2-(3-(5,5-difluoro-1,4,5,6-tetrahydropyrimidin-2-ylamino)benzamido)acetamido)propanoic acid] gave an IC50 under setting [1] below 100 nM.

`N=C(N)Nc1cccc(C(=O)NCC(=O)NC[C@H](NC(=O)c2c(Cl)cccc2Cl)C(=O)O)c1` returned an IC50 under setting [2] below 100 nM. Same read-out and setting: then `COc1ccc(Nc2cccc(C(=O)NCC(=O)NC[C@H](NC(=O)c3c(Cl)cccc3Cl)C(=O)O)c2)nc1`, with below 50000 nM.

Take `N#C/N=C(\N)Nc1cccc(C(=O)NCC(=O)NC[C@@H](NC(=O)c2c(Cl)cccc2Cl)C(=O)O)c1`: the IC50 under setting [2] is below 10000 nM. Same read-out and setting: the same measure for `N=C(N)Nc1ccc2c(c1)C(NCC(=O)NC[C@H](NC(=O)c1c(Cl)cccc1Cl)C(=O)O)CCO2` (stereo partly drawn): below 1000 nM; for `Cc1ccnc(Nc2cccc(C(=O)NCC(=O)NC[C@H](NC(=O)c3c(Cl)cccc3Cl)C(=O)O)c2)c1`: below 10000 nM. With `O=C(CNC(=O)c1cccc(NC2=NCCCN2)c1)NC[C@H](NC(=O)c1c(Cl)cc(-c2ccccc2)cc1Cl)C(=O)O` [SU15210-0147-01, (S)-2-(3,5-dichlorobiphenyl-4-ylcarboxamido)-3-(2-(3-(1,4,5,6-tetrahydropyrimidin-2-ylamino)benzamido)acetamido)propanoic acid], the IC50 under setting [1] was below 100 nM. Turning to `O=C(CCc1ccc2c(n1)NCCC2)NCC(=O)NC[C@H](NC(=O)c1c(Cl)cc(-c2ccccc2)cc1Cl)C(=O)O` [SU15210-0151-01, (S)-2-(3,5-dichloro-[1,1′-biphenyl]-4-carboxamido)-3-(2-(3-(5,6,7,8-tetrahydro-1,8-naphthyridin-2-yl)propanamido)acetamido)propanoic acid], under setting [1], the IC50 was 101 to 1000 nM. Same read-out and setting: the same measure for `CS(=O)(=O)c1ccc(-c2cc(Cl)c(C(=O)N[C@@H](CNC(=O)CNC(=O)c3cccc(N=C(N)N)c3)C(=O)O)c(Cl)c2)cc1` [SU15210-0110-01, (S)-2-(3,5-dichloro-4′-(methylsulfonyl)biphenyl-4-ylcarboxamido)-3-(2-(3 guanidinobenzamido)acetamido)propanoic acid]: below 100 nM; for `C[C@@H](NC(=O)c1cccc(NC2=NCC(F)CN2)c1)C(=O)NC[C@H](NC(=O)c1c(Cl)cc(-c2ccccc2)cc1Cl)C(=O)O` (stereo partly drawn) [SU15210-0254, (2S)-2-[(2,6-dichloro-4-phenyl-benzoyl)amino]-3-[[(2R)-2-[[3-[(5-fluoro-1,4,5,6-tetrahydropyrimidin-2-yl)amino]benzoyl]amino]propanoyl]amino]propanoic acid]: 101 to 1000 nM.

The compound `CNc1cccc(CCC(=O)NCC(=O)NC[C@H](NC(=O)c2c(Cl)cc(-c3ccccc3)cc2Cl)C(=O)O)n1` [SU15210-0152-01, (S)-2-(3,5-dichlorobiphenyl-4-ylcarboxamido)-3-(2-(3-(6-(methylamino)pyridin-2-yl)propanamido)acetamido)propanoic acid] had an IC50 under setting [1] of 1000 to 10000 nM. In turn, `N=C(N)Nc1cccc(C(=O)NCC(=O)NC[C@H](NC(=O)c2c(Cl)cc(-c3ccccc3)cc2Cl)C(=O)O)c1` had an IC50 under setting [2] below 100 nM.

Values taken from US11530180B2, “Alpha-5 beta-1 inhibitors” (The Regents of the University of California, priority 2019, dated 2022).
